# Measurements from US10966995B2, “Use of secoisolariciresinol diglucosides (SDGS) and related compounds for protection against radiation and chemical damage” (THE TRUSTEES OF THE UNIVERSITY OF PENNSYLVANIA, priority 2014, dated 2021).
# Key:
# [1] = system: murine primary lung endothelial cells; assay: γ-H2AX foci immunostaining, endothelial cells; type: cell-based, mouse; conditions: SDG 50 μM 6 h prior IR; 2 Gy; irradiated control 33.6% at 30 min
# Protocol: (§1) Fibroblasts and endothelial cells were isolated from C57/bl6 mouse. For fibroblast isolation, mouse lungs were harvested, minced, and incubated with dispase (2 mg/ml) for 45 minutes. Pieces were plated out and fibroblasts were cultured as described previously and used between passages 3 and 10. Pulmonary microvascular endothelial cells (PMVEC) were isolated from murine lungs as described previously. Briefly, freshly harvested mouse lungs were treated with collagenase followed by isolation of cells by adherence to magnetic beads coated with mAb to platelet endothelial cell adhesion molecule (PECAM). Epithelial cells (C10) cells were originally derived from a normal BALB/c mouse lung explant and are non-tumorigenic, contact-inhibited, and have alveolar type 2 cell features at early passage.
# (§2) For immunostaining of γ-H2AX, cells were plated on glass coverslips (5,000 cells/coverslip), pre-treated (6 h) with 50 μM SDG and irradiated (2 Gy). At desired time interval, cells were fixed (4% para-formaldehyde), washed and blocked with PBST (PBS+0.1% TritonX-100 containing 5% goat serum, 1% BSA). Cells were incubated with γ-H2AX primary antibody (1:200) overnight at 4° C. followed by washing with PBST (3×5 min) and incubation with secondary antibody (Alexa Fluor® 488, Invitrogen, Calif., USA) for 1 hr at RT. Nuclei were counterstained with DAPI and visualized under fluorescence microscope.
# [2] = system: murine primary lung fibroblasts; assay: γ-H2AX foci immunostaining, fibroblasts; type: cell-based, mouse; conditions: SDG 50 μM 6 h prior IR; 2 Gy; irradiated control 30.0% at 30 min
# Protocol: as §1, §2
# [3] = system: murine primary lung cells (epithelial cells, endothelial cells and WT fibroblasts); assay: γ-H2AX flow cytometry (FACS) in irradiated primary lung cells; type: cell-based, mouse; conditions: SDG 50 μM 6 h pre-treatment; 2 Gy; all cell types
# Protocol: as §1
# For FACS analysis, cells were trypsinized and washed with PBS. Cells were then fixed (Fix/Perm buffer, eBioscience), for 45 minutes and washed thereafter using permeabilization wash buffer (BioLegend, USA). […] Cells were washed again with wash buffer and analyzed. The CyAn ADP (Advanced Digital Processing) flow cytometer (Dako, Denmark) Coulter, Fullerton, Calif.) was used to measure γ-H2AX and positive cells were quantified using Summit Software (Dako, Denmark).
# [4] = system: murine primary lung endothelial cells; assay: Morphological detection of apoptotic cells, endothelial cells; type: cell-based, mouse; conditions: SDG 50 μM pre-treatment; irradiated; 24 h; IR alone 15.1%
# Protocol: as §1, with “Epithelial cells (C10) cells were originally derived from a normal BALB/c mouse lung explant and are non-tumorigenic, contact-inhibited, and have alveolar type 2 cell features at early passage.” left out
# (§3) Apoptotic cells are morphologically characterized by condensation of nucleus and cytoplasm, membrane blebbing, cell shrinkage, and breakdown of nuclear DNA, first in large segments and subsequently in nucleosomal fragments and finally formation of well-enclosed apoptotic bodies. Percentage of cells undergoing apoptosis was determined microscopically from the slides used for micronuclei detection (cytogenetic damage). At least, 500 cells were counted for each experiment (experiment done twice) and percent apoptotic cells were determined as follows: % Cell Death=Na/Nt×100, where Na is the number of cells with apoptotic bodies and Nt is the total number of cells analyzed. Gene Expression Analysis by Quantitative Real Time PCR (qPCR)
# [5] = system: murine primary lung fibroblasts; assay: Morphological detection of apoptotic cells, fibroblasts; type: cell-based, mouse; conditions: SDG pre-treatment; irradiated
# Protocol: as §1, with “Epithelial cells (C10) cells were originally derived from a normal BALB/c mouse lung explant and are non-tumorigenic, contact-inhibited, and have alveolar type 2 cell features at early passage.” left out
# as §3
# [6] = Hypochlorite scavenging with APF/HPF fluorescent probes (sodium hypochlorite); conditions: commercially available SDG; FIG. 15B
# Protocol: The fluorescence of ROS probes APF and HPF in PBS was measured at excitation/emission at 490 nm/515 nm in presence of hypochlorite or after γ-radiation exposure. Data is expressed as relative fluorescence units (RFU).
# plasmid DNA = assay: Hypochlorite-induced damage to plasmid DNA; type: biochemical; conditions: SDG 25 μM; 4.5 mM HOCl
# Protocol: Calf thymus or plasmid DNA was incubated with hypochlorite for 2 hrs at 37° C. DNA samples were subjected to agarose (1%) gel electrophoresis and analyzed.
# [7] = system: human epithelial cells (A549); assay: BaP-induced oxidative DNA damage (8-oxo-dGuo, mass spectrometry); type: cell-based; conditions: SDG 10 μM; 25 μM BaP; 3 and 6 hours post carcinogen exposure
# human epithelial cells = assay: BaP-induced DNA adduct formation; type: cell-based; conditions: given alone or in combination
# Text: Similarly, SDG prevents genotoxic stress in human epithelial cells exposed to BaP. Exposure of cells to a potent carcinogen such as BaP, induces genotoxic stress as indicated by increased levels of p53 protein (FIG. 25). […] SDG also prevents oxidative DNA damages in human epithelial cells exposed to BaP. Exposure of cells to a potent carcinogen such as BaP, induces oxidative DNA damage as indicated by increased levels of gamma-H2AX, a marker for double-stranded DNA breaks (FIG. 26). […] Furthermore, SDG prevents DNA adduct formation in human epithelial cells exposed to BaP. Exposure of cells to a potent carcinogen such as BaP, induces the formation of DNA adducts (FIG. 27). DNA adducts are pieces of DNA covalently linked to a carcinogen and is directly linked to the development of malignancy. The DNA adduct levels is decreased by the presence of SDG or its metabolites ED and EL given alone or in combination.
# [8] = SDG pharmacokinetic study after oral gavage (plasma and lung); type: in vivo, mouse
# Protocol: After selecting the 100 mg/kg dose as a dose that induces significant AOE expression while allowing for SDG to be detected in circulation, a pharmacokinetic study was performed to determine bioavailability and biological effects in target tissues (i.e., lung). Blood samples as well as tissues (lung, brain, liver, kidneys, spleen) were collected at 15 min, 30 min, and 1, 2, 4, 6, 8, 12 hours. SDG levels were determined as above in plasma and lung (FIGS. 41A-C). A single dose of 100 mg SDG/Kg was well absorbed and intact SDG was detectable in the circulation up to 6 hours post administration (FIG. 41A) and in flushed, blood-free lung tissues for 4 hours (FIG. 41B). […] The observed gene expression increase correlated with an increase in protein levels determined by western blotting (not shown). […] The use of SDG in human therapy is thus greatly facilitated and the toxicity risk is unlikely. Therefore a dose of 50-100 mg/Kg (1 or 2 mg SDG per day) is sufficient to induce the anticipated protective effects in target tissues and can be used for further study.
# [9] = 100 mg SDG/Kg oral, 30 minutes post-administration
structure (smiles),measurement,setting,value
"COc1cc(C[C@@H](CO[C@@H]2O[C@H](CO)[C@@H](O)[C@H](O)[C@H]2O)[C@H](CO[C@@H]2O[C@H](CO)[C@@H](O)[C@H](O)[C@H]2O)Cc2ccc(O)c(OC)c2)ccc1O [SDG, secoisolariciresinol diglucoside]",γ-H2AX positive cells,[1],21.92%±2.88
same,γ-H2AX positive cells,[2],22.1%±1.9
same,Number of γ-H2AX positive cells (flow cytometry),[3],significantly abrogated
same,Apoptotic cells,[4],10.71%±1.45
same,Extent of apoptosis,[5],significantly reduced
same,ClO^− scavenging,[6],decreased ClO^− dose-dependently
same,Open coiled (OC) form of plasmid DNA,plasmid DNA,18.6%±9.4
same,Super coiled (SC) form of plasmid DNA,plasmid DNA,81.3%±9.4
same,Oxidative DNA damage (8-oxo-dGuo),[7],decreased DNA damage
same,DNA adduct levels,human epithelial cells,decreased
same,"Time SDG detectable in flushed, blood-free lung tissues",[8]; 100 mg SDG/Kg oral,4 h
same,Time intact SDG detectable in the circulation post administration,[8]; 100 mg SDG/Kg oral,up to 6 hours
same,Lung tissue concentration of SDG,[8]; [9],12.6 µM
same,Plasma concentration of SDG,[8]; [9],0.8 µM
same,Absorption,"[8]; single dose of 100 mg SDG/Kg, oral gavage",well absorbed
